{"source": "paper PMC9300104", "about": "(2021)", "key": {"[1]": {"tested_on": "Gdn49 P1mut (A14G, GG) (RNA, riboswitch) GGUUUGCAGGACGGCCUGCAAACGCCUCUUUUCACCGGGGACGGCCCCA", "assay": "1H-1D NMR titration, U17 imino, Hill fit", "conditions": "5 mM Mg2+, 50 mM KCl; 25 mM potassium phosphate, pH 6.2, room temperature, 50 μM RNA, Hill n 1.35"}, "[2]": {"tested_on": "Gdn13 G44A (RNA, riboswitch) GGGGACGACCCCA", "assay": "1H-1D NMR, chemical shift perturbation", "conditions": "5 mM Mg2+, 50 mM KCl; 25 mM potassium phosphate, pH 6.2, room temperature, 20 μM RNA, 1 mM Gdm+"}, "[3]": {"tested_on": "Gdn49 P1P2mut (A14G, G44A, GA) (RNA, riboswitch) GGUUUGCAGGACGGCCUGCAAACGCCUCUUUUCACCGGGGACGACCCCA", "assay": "1H-1D NMR titration, U17 imino, Hill fit", "conditions": "5 mM Mg2+, 50 mM KCl; 25 mM potassium phosphate, pH 6.2, room temperature, 50 μM RNA, Hill n 1.38"}, "[4]": {"tested_on": "Gdn13 wt (P2 wild-type, ACGG loop) (RNA, riboswitch) GGGGACGGCCCCA", "assay": "1H-1D NMR titration", "conditions": "5 mM Mg2+, 50 mM KCl; 25 mM potassium phosphate, pH 6.2, room temperature; KD not detected; up to 8 mM Gdm+ (Table 2)"}, "[5]": {"tested_on": "Gdn49 wt (aptamer wild-type, AG) (RNA, riboswitch) GGUUUGCAGGACGACCUGCAAACGCCUCUUUUCACCGGGGACGGCCCCA", "assay": "1H-1D NMR titration, U17 imino, Hill fit", "conditions": "5 mM Mg2+, 50 mM KCl; 25 mM potassium phosphate, pH 6.2, room temperature, 50 μM RNA, Hill n 1.10; no binding without Mg2+"}, "[6]": {"tested_on": "Gdn49 P2mut (G44A, AA) (RNA, riboswitch) GGUUUGCAGGACGACCUGCAAACGCCUCUUUUCACCGGGGACGACCCCA", "assay": "1H-1D NMR titration, U17 imino, Hill fit", "conditions": "5 mM Mg2+, 50 mM KCl; 25 mM potassium phosphate, pH 6.2, room temperature, 50 μM RNA, Hill n 1.01; two bound signals summed"}, "[7]": {"tested_on": "Gdn23 wt (P1 wild-type, ACGA loop) (RNA, riboswitch) GGUUUGCAGGACGACCUGCAAAC", "assay": "1H-1D NMR titration, U17 imino, Hill fit", "conditions": "5 mM Mg2+, 50 mM KCl; 25 mM potassium phosphate, pH 6.2, room temperature, 50 μM RNA, Hill n 1.16"}}}
{"smiles": "N=C(N)N", "values": [{"measurement": "KD", "setting": "[1]", "value": "264.3 ± 27.8", "unit": "µM"}, {"measurement": "binding", "setting": "[2]", "value": "yes"}, {"measurement": "KD", "setting": "[3]", "value": "165.0 ± 14.3", "unit": "µM"}, {"measurement": "binding", "setting": "[4]", "value": "no"}, {"measurement": "KD", "setting": "[5]", "value": "133.4 ± 3.9", "unit": "µM"}, {"measurement": "KD", "setting": "[6]", "value": "58.9 ± 8.1", "unit": "µM"}, {"measurement": "KD", "setting": "[7]", "value": "197.4 ± 8.8", "unit": "µM"}]}
